#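 48-hour exposure; five concentrations; linearly interpolated endpoints. TGI marks complete inhibition of growth.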
# What was measured:
# Assay in all cases: DTP human tumour cell line panel, 48 h
# PC-3 prostate = tested on: PC-3 prostate
# COLO 205 colon = tested on: COLO 205 colon
# DU-145 prostate = tested on: DU-145 prostate
# SK-MEL-2 melanoma = tested on: SK-MEL-2 melanoma
# K-562 leukemia = tested on: K-562 leukemia
# MDA-MB-231 breast = tested on: MDA-MB-231 breast
# KM12 colon = tested on: KM12 colon
# 786-0 renal = tested on: 786-0 renal
# NCI-H226 lung = tested on: NCI-H226 lung
# NCI-H460 lung = tested on: NCI-H460 lung
# UACC-62 melanoma = tested on: UACC-62 melanoma
# BT-549 breast = tested on: BT-549 breast
# NCI/ADR-RES ovarian = tested on: NCI/ADR-RES ovarian
# HCT-116 colon = tested on: HCT-116 colon
# HCC-2998 colon = tested on: HCC-2998 colon
# MDA-MB-435 = tested on: MDA-MB-435
# OVCAR-8 ovarian = tested on: OVCAR-8 ovarian
# SN12C renal = tested on: SN12C renal
# LOX IMVI melanoma = tested on: LOX IMVI melanoma
# CCRF-CEM leukemia = tested on: CCRF-CEM leukemia
# EKVX NSCLC = tested on: EKVX NSCLC
# NCI-H23 lung = tested on: NCI-H23 lung
# OVCAR-3 ovarian = tested on: OVCAR-3 ovarian
# SW-620 colon = tested on: SW-620 colon
# HCT-15 colon = tested on: HCT-15 colon
# CAKI-1 renal = tested on: CAKI-1 renal
# MDA-N = tested on: MDA-N
# RPMI-8226 leukemia = tested on: RPMI-8226 leukemia
# A498 renal = tested on: A498 renal
# HT29 colon = tested on: HT29 colon
# OVCAR-4 ovarian = tested on: OVCAR-4 ovarian
# T-47D breast = tested on: T-47D breast
# SF-268 CNS = tested on: SF-268 CNS
# IGROV1 ovarian = tested on: IGROV1 ovarian
# SNB-75 CNS = tested on: SNB-75 CNS
# HS 578T breast = tested on: HS 578T breast
# HOP-92 NSCLC = tested on: HOP-92 NSCLC
# HL-60(TB) leukemia = tested on: HL-60(TB) leukemia
# U251 CNS = tested on: U251 CNS
# SNB-19 CNS = tested on: SNB-19 CNS
# HOP-62 NSCLC = tested on: HOP-62 NSCLC
# MOLT-4 leukemia = tested on: MOLT-4 leukemia
# SK-MEL-5 melanoma = tested on: SK-MEL-5 melanoma
# NCI-H522 lung = tested on: NCI-H522 lung
# A549 NSCLC = tested on: A549 NSCLC
# UO-31 renal = tested on: UO-31 renal
# UACC-257 melanoma = tested on: UACC-257 melanoma
# M14 melanoma = tested on: M14 melanoma
# TK-10 renal = tested on: TK-10 renal
# RXF 393 renal = tested on: RXF 393 renal
# SK-MEL-28 melanoma = tested on: SK-MEL-28 melanoma
# MALME-3M melanoma = tested on: MALME-3M melanoma
# SF-295 CNS = tested on: SF-295 CNS
# SK-OV-3 ovarian = tested on: SK-OV-3 ovarian
# ACHN renal = tested on: ACHN renal
# SF-539 CNS = tested on: SF-539 CNS
# MCF7 breast = tested on: MCF7 breast
# SR leukemia = tested on: SR leukemia
# OVCAR-5 ovarian = tested on: OVCAR-5 ovarian
smiles,measurement,setting,value
CCCCOC(=O)c1cc(C(=CCC[C@H]2CC[C@@]3(C)[C@@H](CC[C@@H]4[C@@H]3CC[C@]3(C)[C@@H](C(C)CCCC(C)C)CC[C@@H]43)C2)c2cc(Cl)c(O)c(C(=O)OCCCC)c2)cc(Cl)c1O (some centres undefined),TGI,PC-3 prostate,> 50 µM
same,TGI,COLO 205 colon,> 50 µM
same,TGI,DU-145 prostate,> 50 µM
same,TGI,SK-MEL-2 melanoma,> 50 µM
same,TGI,K-562 leukemia,> 5 µM
same,TGI,MDA-MB-231 breast,> 50 µM
same,TGI,KM12 colon,> 50 µM
same,TGI,786-0 renal,> 50 µM
same,TGI,NCI-H226 lung,> 50 µM
same,TGI,NCI-H460 lung,> 50 µM
same,TGI,UACC-62 melanoma,> 50 µM
same,TGI,BT-549 breast,> 50 µM
same,TGI,NCI/ADR-RES ovarian,> 50 µM
same,TGI,HCT-116 colon,> 50 µM
same,TGI,HCC-2998 colon,> 50 µM
same,TGI,MDA-MB-435,> 50 µM
same,TGI,OVCAR-8 ovarian,> 50 µM
same,TGI,SN12C renal,> 50 µM
same,TGI,LOX IMVI melanoma,> 50 µM
same,TGI,CCRF-CEM leukemia,> 50 µM
same,TGI,EKVX NSCLC,> 50 µM
same,TGI,NCI-H23 lung,> 50 µM
same,TGI,OVCAR-3 ovarian,> 50 µM
same,TGI,SW-620 colon,> 50 µM
same,TGI,HCT-15 colon,> 50 µM
same,TGI,CAKI-1 renal,> 50 µM
same,TGI,MDA-N,> 50 µM
same,TGI,RPMI-8226 leukemia,> 50 µM
same,TGI,A498 renal,> 50 µM
same,TGI,HT29 colon,> 50 µM
same,TGI,OVCAR-4 ovarian,> 50 µM
same,TGI,T-47D breast,> 50 µM
same,TGI,SF-268 CNS,> 50 µM
same,TGI,IGROV1 ovarian,> 50 µM
same,TGI,SNB-75 CNS,> 50 µM
same,TGI,HS 578T breast,> 50 µM
same,TGI,HOP-92 NSCLC,> 50 µM
same,TGI,HL-60(TB) leukemia,> 50 µM
same,TGI,U251 CNS,> 50 µM
same,TGI,SNB-19 CNS,> 50 µM
same,TGI,HOP-62 NSCLC,> 50 µM
same,TGI,MOLT-4 leukemia,> 5 µM
same,TGI,SK-MEL-5 melanoma,> 50 µM
O=[N+]([O-])c1cc2c([N+](=O)[O-])cccc2o1,TGI,PC-3 prostate,36.1 µM
same,TGI,COLO 205 colon,16.5 µM
same,TGI,DU-145 prostate,42 µM
same,TGI,SK-MEL-2 melanoma,25.4 µM
same,TGI,MDA-MB-231 breast,27.6 µM
same,TGI,KM12 colon,34.5 µM
same,TGI,NCI-H522 lung,1.92 µM
same,TGI,A549 NSCLC,> 100 µM
same,TGI,786-0 renal,5.92 µM
same,TGI,NCI-H226 lung,30.4 µM
same,TGI,NCI-H460 lung,> 100 µM
same,TGI,UO-31 renal,3.98 µM
same,TGI,UACC-62 melanoma,27.7 µM
same,TGI,BT-549 breast,31.9 µM
same,TGI,NCI/ADR-RES ovarian,32.6 µM
same,TGI,UACC-257 melanoma,21.8 µM
same,TGI,HCT-116 colon,> 100 µM
same,TGI,M14 melanoma,24.9 µM
same,TGI,HCC-2998 colon,35.7 µM
same,TGI,MDA-MB-435,53.8 µM
same,TGI,OVCAR-8 ovarian,38.8 µM
same,TGI,TK-10 renal,23.8 µM
same,TGI,RXF 393 renal,20 µM
same,TGI,SN12C renal,27.9 µM
same,TGI,SK-MEL-28 melanoma,16.8 µM
same,TGI,LOX IMVI melanoma,> 100 µM
same,TGI,CCRF-CEM leukemia,5.05 µM
same,TGI,EKVX NSCLC,6.25 µM
same,TGI,NCI-H23 lung,37.6 µM
same,TGI,OVCAR-3 ovarian,21.8 µM
same,TGI,SW-620 colon,7.99 µM
same,TGI,HCT-15 colon,23 µM
same,TGI,CAKI-1 renal,5.77 µM
same,TGI,MDA-N,23.6 µM
same,TGI,RPMI-8226 leukemia,11.4 µM
same,TGI,A498 renal,43.5 µM
same,TGI,MALME-3M melanoma,30.1 µM
same,TGI,HT29 colon,66.6 µM
same,TGI,OVCAR-4 ovarian,3.63 µM
same,TGI,SF-295 CNS,42.4 µM
same,TGI,SK-OV-3 ovarian,31.3 µM
same,TGI,T-47D breast,> 100 µM
same,TGI,SF-268 CNS,31.1 µM
same,TGI,HS 578T breast,43.8 µM
same,TGI,HOP-92 NSCLC,36 µM
same,TGI,U251 CNS,> 100 µM
same,TGI,SNB-19 CNS,36 µM
same,TGI,ACHN renal,10.6 µM
same,TGI,HOP-62 NSCLC,37.2 µM
same,TGI,SF-539 CNS,6.67 µM
same,TGI,MCF7 breast,13.8 µM
same,TGI,SK-MEL-5 melanoma,33.2 µM
CN(C)c1ccc(/C=C/c2cc(-c3ccccc3)[n+](C)n2-c2ccccc2)cc1,TGI,PC-3 prostate,3.27 µM
same,TGI,COLO 205 colon,0.42 µM
same,TGI,DU-145 prostate,22.7 µM
same,TGI,SK-MEL-2 melanoma,0.953 µM
same,TGI,SR leukemia,> 30 µM
same,TGI,MDA-MB-231 breast,17.2 µM
same,TGI,KM12 colon,3.07 µM
same,TGI,NCI-H522 lung,0.318 µM
same,TGI,A549 NSCLC,23.2 µM
same,TGI,786-0 renal,23 µM
same,TGI,NCI-H226 lung,71 µM
same,TGI,NCI-H460 lung,> 100 µM
same,TGI,UO-31 renal,6.66 µM
same,TGI,UACC-62 melanoma,> 39.7 µM
same,TGI,BT-549 breast,0.613 µM
same,TGI,NCI/ADR-RES ovarian,> 100 µM
same,TGI,UACC-257 melanoma,26.8 µM
same,TGI,HCT-116 colon,14.1 µM
same,TGI,M14 melanoma,> 34.7 µM
same,TGI,HCC-2998 colon,56.4 µM
same,TGI,MDA-MB-435,2.98 µM
same,TGI,TK-10 renal,30.5 µM
same,TGI,RXF 393 renal,4.18 µM
same,TGI,SN12C renal,7.6 µM
same,TGI,SK-MEL-28 melanoma,> 34.6 µM
same,TGI,LOX IMVI melanoma,14.2 µM
same,TGI,EKVX NSCLC,10.8 µM
same,TGI,NCI-H23 lung,0.92 µM
same,TGI,OVCAR-3 ovarian,17.2 µM
same,TGI,OVCAR-5 ovarian,30.8 µM
same,TGI,SW-620 colon,> 35.1 µM
same,TGI,HCT-15 colon,14.5 µM
same,TGI,CAKI-1 renal,13 µM
same,TGI,MDA-N,13.6 µM
same,TGI,RPMI-8226 leukemia,> 100 µM
same,TGI,A498 renal,14.5 µM
same,TGI,HT29 colon,> 100 µM
same,TGI,OVCAR-4 ovarian,> 69.2 µM
same,TGI,SF-295 CNS,16.2 µM
same,TGI,SK-OV-3 ovarian,4.33 µM
same,TGI,SF-268 CNS,4.77 µM
same,TGI,IGROV1 ovarian,3.76 µM
same,TGI,SNB-75 CNS,2.37 µM
same,TGI,HS 578T breast,0.248 µM
same,TGI,HOP-92 NSCLC,16.6 µM
same,TGI,HL-60(TB) leukemia,0.128 µM
same,TGI,U251 CNS,> 33.8 µM
same,TGI,SNB-19 CNS,11.3 µM
same,TGI,ACHN renal,16 µM
same,TGI,HOP-62 NSCLC,12.4 µM
same,TGI,SF-539 CNS,29 µM
same,TGI,MOLT-4 leukemia,3.41 µM
same,TGI,MCF7 breast,> 33.3 µM
same,TGI,SK-MEL-5 melanoma,0.522 µM

# Reference: PubChem BioAssay (NCI)
